According to article PMC12434521, “Characterization of Next-Generation Inhibitors for the Inward-Rectifier Potassium Channel Kir2.1: Discovery of VU6080824” (ACS Medicinal Chemistry Letters, 2025):
Read-outs that look alike come from different tables or passages of the source.

Molecular target: T1, human Kir2.1 (Homo sapiens, UniProt P63252)
T1 construct: expressed in transfected cells
T1 sequence (P63252 1-427): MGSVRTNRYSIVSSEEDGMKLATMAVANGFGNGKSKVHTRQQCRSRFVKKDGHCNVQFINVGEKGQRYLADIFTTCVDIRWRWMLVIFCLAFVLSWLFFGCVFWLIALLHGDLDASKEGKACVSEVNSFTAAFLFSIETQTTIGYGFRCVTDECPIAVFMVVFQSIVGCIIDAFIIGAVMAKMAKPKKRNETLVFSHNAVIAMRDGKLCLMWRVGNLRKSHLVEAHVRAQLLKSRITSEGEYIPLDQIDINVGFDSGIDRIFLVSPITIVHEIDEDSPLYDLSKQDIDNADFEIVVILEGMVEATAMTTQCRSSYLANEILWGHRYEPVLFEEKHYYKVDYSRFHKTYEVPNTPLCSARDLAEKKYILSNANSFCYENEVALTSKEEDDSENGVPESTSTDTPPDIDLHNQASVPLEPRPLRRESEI
Assay: Kir2.1 thallium flux assay
Format: cell-based
Conditions: for Emax / Thallium Flux Efficacy (% Inhibition): efficacy from 4PL fit, relative to ML133; for Emax: read-out: Thallium Flux Efficacy (% Inhibition)
Description: Thallium Flux Assay Experimental Conditions
The Tl+ flux assays were conducted as previously described with modifications optimized for Kir2.1 cell line as described below.1
Briefly, stable T-REx-HEK-293 cells expressing human K ir2.1 were cultured in DMEM growth medium (Catalog #11965-092, Gibco, Billings, MT) containing 10% heat-inactivated FBS (Catalog #16140, Gibco), 100 U/mL PenStrep, 5 μg/mL Blasticidin S, and 250 μg/mL Hygromycin.
The day prior to the experiment, cells at ~90% confluency were resuspended in plating media, which consisted of the same components as the growth media, except that heat-inactivated FBS was replaced with dialyzed FBS (Catalog #26400, Gibco). Tetracycline was added to the plating media to achieve a final concentration of 1 μg/ml to induce hKir2.1 expression. Cells were then counted and plated at 15,000 cells/well in black-walled, amine- or PDL- coated, 384-well plates at 20 μl/well (Corning, Corning, NY). On the day of experiment, the media was removed from the cell plate and replaced with 20 μl/well of Tl+-sensitive dye loading solution containing 2.5 μg/ml Thallos-AM (Catalog #11000-050, ION Biosciences, San Marcos, TX) in assay buffer using a Multidrop Combi dispenser (Thermo Fisher Scientific, Walkham, MA). Cell plates loaded with dye solution were incubated for 1 hour at room temperature. Following incubation, the cell plate was washed with HBSS assay buffer containing 20 mM HEPES using a BioTek ELx 405 TS plate washer (Agilent, Santa Clara, CA), leaving 20 μl of assay buffer in each well. The cell plate was then transferred to a Panoptic kinetic imaging plate reader (WaveFront Biosciences, Franklin, TN) for imaging at 1 Hz, 482/35 nm excitation and 536/40 nm emission for 10 seconds. Following this, 20 μl/well of HBSS assay buffer containing test compounds at 2-fold over their final concentrations were added and imaging continued for another eight minutes, after which 10 μl/well of chloride-free Tl+ stimulus solution was added (Catalog #11000-050, ION Biosciences). The final Tl2SO4 concentration in cell plate post-Tl+ stimulus solution addition was 0.25 mM. Images were collected for an additional two minutes. A ten-point concentration series from 30 μM to 2 nM with a 1:3 dilution factor was generated using an Echo liquid handler 650 (Labcyte, San Jose, CA). Final DMSO concentration, 0.3% (v/v) in the assay was constant across all compound concentrations.
The initial slopes of the Tl+-induced fluorescence changes were fit to a four-parameter logistic equation using our in-house software Waveguide to determine potency and efficacy values. […]
Bauer, J. A.; Days, E. L.; Lindsley, C. […]

[1] = T-REx-HEK-293 cells expressing human Kir2.1, 4PL fit, top concentration 30 μM, read-out: Thallium Flux Potency IC50

Row | IC50 [1] | Emax | Thallium Flux Efficacy (% Inhibition) | IC50 (mean ± SEM over 9 experimental plates in triplicate, read-out: Thallium flux pIC50 (converted)) | Thallium flux potency relative to ML133 | Compound
1 | 12.8 µM | 106% |  |  |  | COc1ccc(CNCc2cccc(-c3ccccc3)c2)cc1 [Compound 5j]
2 | 10.1 µM | 101% |  | 10.5 µM |  | COc1ccc(CNCc2cccc3ccccc23)cc1 [ML133, N-(4-methoxybenzyl)-1-(naphthalen-1-yl)methanamine, reference compound]
3 | 4.9 µM | 100% |  |  |  | COc1ccc(CNCc2ccc(-c3cccc(C#N)c3)cc2)cc1 [Compound 5t]
4 | 8.2 µM | 101% |  |  |  | COc1ccc(CNCc2ccc(-c3ccccc3)cc2)cc1 [Compound 5k]
5 | 8.1 µM | 99% |  |  |  | COc1ccc(CNCc2ccc(-c3cccc(F)c3)cc2)cc1 [Compound 5p]
6 | 5.9 µM | 101% |  |  |  | COc1ccc(CNCc2ccc(-c3cccc(OC)c3)cc2)cc1 [Compound 5s, 1-(3′-Methoxy-[1,1’-biphenyl]-4-yl)-N-(4-methoxybenzyl)methanamine]
7 | 11.2 µM | 99% |  |  | equipotent | COc1ccc(CNCc2ccc3c(c2)OC(F)(F)O3)cc1 [Compound 5h]

More lines, now with the values behind:

Row | Compound | IC50 [1] | Emax | Thallium Flux Efficacy (% Inhibition) | IC50 (mean ± SEM over 9 experimental plates in triplicate, read-out: Thallium flux pIC50 (converted)) | Thallium flux potency relative to ML133
8 | [2H]C([2H])([2H])Oc1ccc(CNCc2ccc(-c3cccc(OC)c3)cc2)cc1 [Compound 9] |  |  | 100% |  | 
9 | [2H]C([2H])([2H])Oc1ccc(CNCc2ccc(-c3cccc(OC([2H])([2H])[2H])c3)cc2)cc1 [Compound 13] |  |  | 100% |  | 
10 | [2H]C([2H])([2H])Oc1ccc(CNCc2cccc3ccccc23)cc1 [Compound 7] | 11.1 µM | 102% |  |  | equipotent
11 | [2H]C([2H])([2H])Oc1cccc(-c2ccc(CNCc3ccc(OC)cc3)cc2)c1 [Compound 11] |  |  | 100% |  | 
